According to US8268848B2, “Cyclopropane compound” (Eisai R&D Management Co., Ltd., priority 2010, dated 2012):
Like-named read-outs stand apart in the source and are kept apart here.

How the values were obtained:
[1] = molecular target: T1, OX2 (Homo sapiens, UniProt O43614); test: Measurement of antagonism (PLAP assay), OX2; assay type: cell-based; set-up: expressed in transfected cells; host or cells: HEK-293 cells, expression vector pBabeCLIH
T1 sequence (O43614 1-444): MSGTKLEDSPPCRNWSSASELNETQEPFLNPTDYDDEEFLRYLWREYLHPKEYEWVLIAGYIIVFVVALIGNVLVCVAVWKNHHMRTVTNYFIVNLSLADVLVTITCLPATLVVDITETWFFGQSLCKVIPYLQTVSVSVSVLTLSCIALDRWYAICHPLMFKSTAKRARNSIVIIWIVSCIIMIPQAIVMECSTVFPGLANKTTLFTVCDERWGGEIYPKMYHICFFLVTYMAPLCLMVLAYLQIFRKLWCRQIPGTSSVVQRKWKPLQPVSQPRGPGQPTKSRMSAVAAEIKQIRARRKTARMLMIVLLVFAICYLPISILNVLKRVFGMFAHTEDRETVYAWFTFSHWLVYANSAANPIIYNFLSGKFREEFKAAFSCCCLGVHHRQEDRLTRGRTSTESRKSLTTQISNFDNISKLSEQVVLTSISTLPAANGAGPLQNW
Experimental: (§1) 2. Measurement of Antagonism (PLAP Assay)
(§2) The antagonistic function of the compound of the present invention to prevent the activation of OX2 and OX1 by orexin-A (OX-A), which is a natural peptide agonist, was measured using a cell-based reporter assay. […] The cells were plated at a density of 10,000 cells/well onto a non-coated 96-well plate in Dulbecco's modified Eagle medium (Sigma Cat No. D6046:10% v/v heat-inactivated fetal bovine serum was contained). The cells were cultured at 37° C. overnight, so that they could adhere to the plate. On the following day, cells were incubated with a compound of the present invention dissolved in Dulbecco's modified Eagle medium (Sigma Cat No. A8806:0.1% w/v bovine serum albumin was contained), and added to the cell plate to reach a final concentration of 0.1% dimethyl sulfoxide.
(§3) The thus obtained mixture was incubated at room temperature for 1 hour. Thereafter, human OX-A and forskolin were dissolved in the same medium as described above, which contained fetal bovine serum albumin, and the medium was then added to the cells, resulting in a final concentration of 300 nM forskolin. Subsequently, the cells were cultured at 37° C. for approximately 18 to 24 hours.

[2] = tested on: mice (C57BL/6NCrlCrLj); test: Sleep experiment (EEG/EMG) in mice; assay type: in vivo
Experimental: As a method for measuring the influence of the present compound on sleep time, electroencephalogram (EEG) and electromyogram (EMG) measurements were carried out in mice (C57BL/6NCrlCrLj).
In order to measure brain waves and muscle signals, EEG and EMG electrode implantation was performed on individual mice, and the mice were then housed in a state in which they could freely move and habituate in individual recording cages for 1 week or longer. Thereafter, amplified EEG and EMG signals were digitally recorded.
Mice received either oral administration of vehicle or test compound in vehicle, after which sleep/wake behavior of mice was recorded for 3 hours.
For sleep analysis, automatic analysis software from Kissei Comtec Co., Ltd. was used to analyze EEG frequency and EMG activity signals in detail and to determine sleep and wake states. Thereafter, accumulated sleeping time over 3 hours was calculated.
The effect of the compound to increase sleep time was evaluated as the difference between sleeping time on the vehicle-administration day and the sleep time on the subsequent drug-administration day.
The minimum effective dose (MED; mg/kg) was obtained from accumulated sleep time of mice with three hours after the administration.

[3] = molecular target: T2, OX1 (Homo sapiens, UniProt O43613); test: Measurement of antagonism (PLAP assay), OX1; assay type: cell-based; set-up: expressed in transfected cells; host or cells: HEK-293 cells, expression vector pBabeCLIH
T2 sequence (O43613 1-425): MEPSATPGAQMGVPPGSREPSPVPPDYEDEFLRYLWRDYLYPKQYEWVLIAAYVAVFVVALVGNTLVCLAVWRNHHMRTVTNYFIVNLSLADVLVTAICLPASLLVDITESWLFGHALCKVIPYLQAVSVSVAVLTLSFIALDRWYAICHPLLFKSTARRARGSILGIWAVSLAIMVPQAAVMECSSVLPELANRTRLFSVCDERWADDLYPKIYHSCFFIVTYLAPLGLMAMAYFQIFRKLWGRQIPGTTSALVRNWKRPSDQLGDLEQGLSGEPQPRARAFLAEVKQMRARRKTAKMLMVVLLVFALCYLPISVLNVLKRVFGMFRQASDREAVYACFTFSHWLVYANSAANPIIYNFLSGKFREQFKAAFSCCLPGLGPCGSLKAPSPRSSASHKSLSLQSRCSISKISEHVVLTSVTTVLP
Experimental: as §1, §2, §3

[4] = molecular target: T1, OX2; test: Measurement of orexin receptor-binding ability ([125I]-OX-A, cell membranes, OX2); set-up: expressed in transfected cells; host or cells: CHO cells (membrane preparation); details: membranes of recombinant CHO cells expressing OX2, 0.2 nM [125I]-OX-A
[5] = molecular target: T2, OX1; test: Measurement of orexin receptor-binding ability ([125I]-OX-A, cell membranes, OX1); set-up: expressed in transfected cells; host or cells: CHO cells (membrane preparation)
[6] = tested on: rats; details: cited from earlier work
[7] = tested on: patients with insomnia; details: cited from earlier work
[8] = tested on: normal humans; details: cited from earlier work
[9] = HEK-293 cells expressing human OX2, 1 nM human OX-A, IC50 converted by Cheng-Prusoff equation, read-out: OX2 (Ki)
[10] = mice, oral administration, difference to vehicle day, 3 hours
[11] = HEK-293 cells expressing human OX1, 1 nM human OX-A, IC50 converted by Cheng-Prusoff equation, read-out: OX1 (Ki)
[12] = membranes of recombinant CHO cells expressing OX1, 0.2 nM [125I]-OX-A, read-out: OX1 (IC50)

Compound | Ki [1, 9] [nM] | Sleep extended time 10 mg/kg (min/3 hrs) [2, 10] [min/3 hrs] | Ki [3, 11] [nM] | IC50 ([4]; OX2 (IC50) nM) [nM] | IC50 [5] [nM] | Sleep extended time 10 mg/kg (min/3 hrs) ([2]; po, 3 h) | IC50 ([4]; read-out: OX2 (IC50)) [nM] | IC50 [5, 12] [nM] | also measured
COc1cccc([C@]2(COc3cnc(C)nc3C)C[C@H]2C(=O)Nc2ccc(F)cn2)c1 [Example 186, (1R,2S)-2-{[(2,4-dimethylpyrimidin-5-yl)oxy]methyl}-N-(5-fluoropyridin-2-yl)-2-(3-methoxyphenyl)cyclopropanecarboxamide] | 3.4 | 14.7 | 87 | 7 | 22 |  |  |  | 
Cc1ncc(OC[C@@]2(c3ccccc3)C[C@H]2C(=O)Nc2cc(C)c(F)cn2)c(C)n1 [Example 51, (1R,2S)-2-{[(2,4-dimethylpyrimidin-5-yl)oxy]methyl}-N-(5-fluoro-4-methylpyridin-2-yl)-2-phenylcyclopropanecarboxamide] |  | 23.6 |  | 3.9 | 6.4 |  |  |  | Ki [1]: 1.2 nM; minimum effective dose (MED) ([2]; mice, oral, doses 0.3 to 100 mg/kg, accumulated sleep time within three hours after administration): 3 mg/kg; Ki [3]: 29 nM
Cc1ncc(OC[C@@]2(c3ccc(Cl)cc3)C[C@H]2C(=O)Nc2ccc(F)cn2)c(C)n1 [Example 161] | 2.9 | 10.0 | 32 | 12 | 50 |  |  |  | 
Cc1ncc(OC[C@@]2(c3ccccc3)C[C@H]2C(=O)Nc2ccc(Cl)cn2)c(C)n1 [Example 16, (1R,2S)-N-(5-chloropyridin-2-yl)-2-{[(2,4-dimethylpyrimidin-5-yl)oxy]methyl}-2-phenylcyclopropanecarboxamide] | 5.4 |  | 80 |  |  | 19.0 | 1.9 | 40 | 
CNC(=O)[C@@H](c1ccccc1)N1CCc2cc(OC)c(OC)cc2[C@@H]1CCc1ccc(C(F)(F)F)cc1 [almorexant, (2R)-2-{(1S)-6,7-dimethoxy-1-[2-(4-trifluoromethyl-phenyl)ethyl]-3,4-dihydro-1H-isoquinolin-2-yl}-N-methyl-2-phenylacetamide] |  |  |  |  |  |  |  |  | REM sleep time and non-REM sleep time [6]: dose-dependently increases both rapid eye movement (REM) sleep time and non-REM sleep time; wakefulness [6]: causes a decrease in wakefulness in rats; sleep efficacy, sleep latency, REM sleep [7]: exhibits improvement of sleep efficacy, shortness of sleep latency, increase of REM sleep and improvement of REM sleep ratio; sleep latency, sleep efficacy, total sleep time [8]: exhibits dose-dependently a reduction of sleep latency, sleep efficacy and extension of total sleep time
Cc1ncc(OC[C@@]2(c3ccccc3)C[C@H]2C(=O)Nc2cc(C)c(Cl)cn2)c(C)n1 [Example 45, (1R,2S)-N-(5-chloro-4-methylpyridin-2-yl)-2-{[(2,4-dimethylpyrimidin-5-yl)oxy]methyl}-2-phenylcyclopropanecarboxamide] | 0.45 |  | 19 |  |  | 15.2 | 6.2 | 13.9 | 
